The SangsterLogP compilation

| logP | SMILES |
| --- | --- |
| 2.59 | CCOc1ncc(-c2ccncc2)cc1C#N |
| 0.76 | N#Cc1cc(-c2ccncc2)cnc1OCC(O)CO (centres undefined) |
| 1.81 | Cc1nc(OCCOCCO)c(C#N)cc1-c1ccncc1 |
| 2.4 | COCCOc1nc(C)c(-c2ccncc2)cc1C#N |
| 2.02 | COc1ncc(-c2ccncc2)cc1C#N |
| 3.74 | COCCOc1nc(C)c(-c2ccccc2)cc1C#N |
| 1.5 | N#Cc1cc(-c2ccncc2)cnc1OCCOCCO |
| 1.96 | COCCOc1ncc(-c2ccncc2)cc1C#N |
| 3.23 | Cc1nc(OCCO)c(C#N)cc1-c1ccccc1 |
| 3.09 | N#Cc1cc(-c2ccncc2)cnc1Oc1ccccc1 |
| 2.41 | COc1nc(C)c(-c2ccncc2)cc1C#N |
| 1.65 | CC(O)COc1ncc(-c2ccncc2)cc1C#N (centres undefined) |
| 1.83 | Cc1nc(OCCO)c(C#N)cc1-c1ccncc1 |
| 1.63 | N#Cc1cc(-c2ccncc2)cnc1OCCCO |
